This is an account of results in ChEMBL document CHEMBL1201862, “PubChem BioAssay data set” (2004).

The source made the active and inactive calls.

Experiment [1] concerns the target T1, Heat shock factor protein 1 (Mus musculus, UniProt P38532).
T1 sequence (P38532 whole entry): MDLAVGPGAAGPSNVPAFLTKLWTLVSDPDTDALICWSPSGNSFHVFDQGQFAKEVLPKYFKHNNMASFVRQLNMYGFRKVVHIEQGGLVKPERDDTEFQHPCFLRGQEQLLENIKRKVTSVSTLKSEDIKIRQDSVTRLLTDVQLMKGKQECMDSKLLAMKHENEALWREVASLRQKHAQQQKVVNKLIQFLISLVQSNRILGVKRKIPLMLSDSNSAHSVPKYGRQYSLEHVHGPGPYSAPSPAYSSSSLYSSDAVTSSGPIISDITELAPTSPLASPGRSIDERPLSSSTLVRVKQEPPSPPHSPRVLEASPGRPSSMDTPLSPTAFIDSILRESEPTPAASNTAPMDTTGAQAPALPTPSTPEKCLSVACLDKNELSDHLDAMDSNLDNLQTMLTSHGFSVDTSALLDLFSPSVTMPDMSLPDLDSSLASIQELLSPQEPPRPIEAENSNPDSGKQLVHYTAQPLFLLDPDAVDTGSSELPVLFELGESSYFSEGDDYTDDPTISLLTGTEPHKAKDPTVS
In words: inhibition of MG132-induced HSE-luciferase signal, confirmation, cell-based, NIH3T3, luminescence, dose retest (AID 2382).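 Further: NIH3T3 fibroblasts with HSF1-driven luciferase reporter stressed by proteasome inhibitor MG132; luminescence from HSF1-driven luciferase expression after 8 hours of MG132 stress.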 The format is functional.

A short description of experiment [2]: inhibitors of intracellular T. cruzi replication, confirmation, NIH3T3 host cells, beta-gal luminescence (AID 2044).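 Further: intracellular parasites grown in NIH/3T3 mouse fibroblasts as host cells; luminescent beta-galactosidase reporter signal from transgenic T. cruzi replicating inside host cells; inhibitors lower the luminescence signal.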 Type of experiment: functional, cell-based.
Experiment [3] in a line: cytotoxicity toward NIH3T3 fibroblasts, dose response, counter-screen, cell-based, ATP luminescence, mouse fibroblasts (AID 2010).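 Further: cells exposed to compound for about 90 hours before reading.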 Type of experiment: functional.
Another experiment deals with CHO. As to the kind of experiment: cytotoxicity in TLR9-MyD88 CHO cells, dose response, cytotoxicity control for TLR9-MyD88 binding inhibitor project, cell-based, luminescence (AID 588339).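 Further: CHO cells stably coexpressing TLR9 and MyD88 fusions from primary screen; compound exposure lasted 48 hours before viability readout.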 Particulars: Cricetulus griseus. The format is functional, hamster.
For experiment [4], the target named is T2, Replicative DNA helicase DnaB (Mycobacterium tuberculosis, UniProt P9WMR3).
T2 sequence (P9WMR3 whole entry): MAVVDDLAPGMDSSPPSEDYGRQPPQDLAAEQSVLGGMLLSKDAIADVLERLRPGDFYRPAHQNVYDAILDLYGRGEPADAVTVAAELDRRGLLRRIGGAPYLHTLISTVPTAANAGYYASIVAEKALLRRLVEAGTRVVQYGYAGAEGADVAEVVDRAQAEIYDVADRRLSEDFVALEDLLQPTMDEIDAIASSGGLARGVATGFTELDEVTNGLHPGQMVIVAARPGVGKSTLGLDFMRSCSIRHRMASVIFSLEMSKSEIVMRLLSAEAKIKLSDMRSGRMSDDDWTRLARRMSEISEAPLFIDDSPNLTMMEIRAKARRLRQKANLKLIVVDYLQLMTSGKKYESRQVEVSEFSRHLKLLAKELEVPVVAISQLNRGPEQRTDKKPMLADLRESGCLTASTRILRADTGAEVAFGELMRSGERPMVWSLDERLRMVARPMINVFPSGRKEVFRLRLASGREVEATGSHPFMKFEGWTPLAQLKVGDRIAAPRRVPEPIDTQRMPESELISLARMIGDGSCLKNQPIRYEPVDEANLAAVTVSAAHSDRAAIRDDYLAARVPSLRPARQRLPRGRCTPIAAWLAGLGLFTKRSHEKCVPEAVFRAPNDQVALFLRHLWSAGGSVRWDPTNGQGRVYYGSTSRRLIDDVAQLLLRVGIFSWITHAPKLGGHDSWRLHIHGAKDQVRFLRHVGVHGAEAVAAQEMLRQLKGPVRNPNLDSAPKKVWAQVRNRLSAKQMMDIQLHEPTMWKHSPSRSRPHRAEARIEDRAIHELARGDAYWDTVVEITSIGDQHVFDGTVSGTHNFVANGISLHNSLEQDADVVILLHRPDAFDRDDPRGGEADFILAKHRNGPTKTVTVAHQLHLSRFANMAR
As to the kind of experiment: DnaB intein splicing inhibitors, dose response, biochemical, cell-free fluorescence (AID 449749). The format is functional.

The target of the next experiment is T3, Protein RecA (Mycobacterium tuberculosis, UniProt P9WHJ3).
T3 sequence (P9WHJ3 whole entry): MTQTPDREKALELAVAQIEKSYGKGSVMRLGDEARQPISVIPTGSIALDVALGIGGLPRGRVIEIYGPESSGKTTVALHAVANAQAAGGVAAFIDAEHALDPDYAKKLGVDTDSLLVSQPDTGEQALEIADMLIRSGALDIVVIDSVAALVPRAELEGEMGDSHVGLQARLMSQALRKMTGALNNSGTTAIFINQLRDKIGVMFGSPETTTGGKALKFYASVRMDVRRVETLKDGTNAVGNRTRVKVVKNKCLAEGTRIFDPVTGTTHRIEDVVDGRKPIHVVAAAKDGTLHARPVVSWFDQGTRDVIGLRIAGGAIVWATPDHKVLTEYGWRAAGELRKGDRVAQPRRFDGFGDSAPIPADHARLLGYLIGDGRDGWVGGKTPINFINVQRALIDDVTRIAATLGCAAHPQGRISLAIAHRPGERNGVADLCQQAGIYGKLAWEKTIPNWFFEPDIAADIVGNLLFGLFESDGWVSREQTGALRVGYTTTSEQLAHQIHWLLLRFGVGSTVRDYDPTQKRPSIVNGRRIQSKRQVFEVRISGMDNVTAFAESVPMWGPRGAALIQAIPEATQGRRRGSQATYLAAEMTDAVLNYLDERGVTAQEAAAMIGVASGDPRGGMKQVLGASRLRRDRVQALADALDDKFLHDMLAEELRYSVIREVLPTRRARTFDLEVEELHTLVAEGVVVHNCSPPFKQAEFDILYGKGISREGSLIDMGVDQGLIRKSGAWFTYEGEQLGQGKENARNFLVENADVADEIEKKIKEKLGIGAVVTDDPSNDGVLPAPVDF
In words: Fluorescence Cell-Free Homogeneous Dose Retest to Identify Inhibitors of RecA-Intein Splicing Activity. [Related pubchem assays (depositor defined):AID2097, AID2223, AID489010, AID492950]. Type of experiment: functional.

The next experiment has as its target Beta Lactamase (Pseudomonas aeruginosa, UniProt Q932Y6). In words: beta-lactamase reporter inhibitor potency, dose response, artefact control for TLR9-MyD88 binding inhibitor project, BLA reporter cells, FRET fluorescence (AID 588341).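 Further: cell based assay in CHO-K1 cells stably expressing beta-lactamase.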 Type of experiment: cell-based.
Another experiment concerns the target Paired box protein Pax-8 (Homo sapiens, UniProt Q06710). As to the kind of experiment: inhibitors of PAX8-driven TPO luciferase reporter, dose response, RMG-I cells, cherry-pick (AID 687027).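 Further: luciferase reporter driven by Pax8 target thyroperoxidase promoter measured by SteadyGlo luminescence.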 The format is functional, cell-based. A general note: A reporter such as luciferase makes a cellular process visible.
The test system of a further experiment is Vero. In words: cells. Type of experiment: functional. As to conditions: Chlorocebus sabaeus.
In experiment [5] the target is Protein disulfide-isomerase (Homo sapiens, UniProt P07237). As to the kind of experiment: PDI inhibitors, insulin aggregation turbidity, dose response, biochemical, absorbance, cherry-picked samples (AID 602350). The format is functional.
The subject of experiment [6] is HEK293. As to the kind of experiment: cells. Particulars: Homo sapiens.
In experiment [7] the test system is HEK293. As to the kind of experiment: cells. Particulars: Homo sapiens. This is another data set of the same source.
Experiment [8] addresses DNA dC->dU-editing enzyme APOBEC-3G (Homo sapiens, UniProt Q9HC16). As to the kind of experiment: APOBEC3G deaminase inhibitors, SAR follow-up, biochemical, fluorescence, single-stranded DNA substrate (AID 602136). The format is functional. Particulars: read-out: IC50_Mean.
Experiment [9] deals with DNA dC->dU-editing enzyme APOBEC-3A (Homo sapiens, UniProt P31941). In words: SAR analysis of small molecule inhibitors of APOBEC3A DNA Deaminase via a fluorescence-based single-stranded DNA deaminase assay. The format is functional. Particulars: read-out: IC50_Mean.
Experiment [10] concerns the target T4, Insulin-degrading enzyme (Homo sapiens, UniProt P14735). In words: activators of recombinant IDE enzyme, dose response, counter-screen for IDE activator project, biochemical, fluorescence polarization (AID 588681). A general note: A counterscreen serves to expose hits that act by an unwanted route or on another target.
Experiment [11] has as its target T4, Insulin-degrading enzyme. As to the kind of experiment: activators of endogenous IDE in HEK cells, dose response, cell-based, fluorescence polarization (AID 588439). Type of experiment: functional. (Polarisation of emitted light reports the rotation of a fluorescent probe.)
The subject of experiment [12] is HEK293. In words: HEK cell cytotoxicity by LDH release, dose response, cytotoxicity control for IDE activator project, fluorescence, HEK cells (AID 588440).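 Further: cytotoxicity by LDH release measuring loss of membrane integrity.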 The format is functional, cell-based. Particulars: Homo sapiens.
Experiment [13] concerns HEK293. In words: optical interference in Abeta FP readout, dose response, artefact control for IDE activator project, biochemical, fluorescence polarization (AID 588442). The format is functional, cell-based. As to conditions: Homo sapiens.
Experiment [14] addresses Serine/threonine-protein kinase pim-1 (Homo sapiens, UniProt P11309). Type of experiment: functional.
The target of experiment [15] is Casein kinase I isoform delta (Homo sapiens, UniProt P48730). The format is functional.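 Further: measured as one member (CSNK1D) of a kinome panel.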
Experiment [16] has as its target Protein kinase C theta type (Homo sapiens, UniProt Q04759). In words: Navigating the Kinome. Panel member name: PRKCQ. The format is functional.
The next experiment addresses Aurora kinase A (Homo sapiens, UniProt O14965). Type of experiment: functional.
Experiment [17] addresses Platelet-derived growth factor receptor beta (Homo sapiens, UniProt P09619). The format is functional.
The target of experiment [18] is Vascular endothelial growth factor receptor 2 (Homo sapiens, UniProt P35968). Type of experiment: functional.
Experiment [19] deals with Leucine-rich repeat serine/threonine-protein kinase 2 (Homo sapiens, UniProt Q5S007). Type of experiment: functional.
In experiment [20] the target is Cyclin-dependent kinase 19 (Homo sapiens, UniProt Q9BWU1). In words: Navigating the Kinome. Panel member name: CDC2L6. The format is functional.
Experiment [21] has as its target Cyclin-dependent kinase 8 (Homo sapiens, UniProt P49336). As to the kind of experiment: Navigating the Kinome. Panel member name: CDK8. Type of experiment: functional.
Experiment [22] addresses Cyclin-dependent kinase 9 (Homo sapiens, UniProt P50750). Type of experiment: functional.
Experiment [23] deals with cAMP-dependent protein kinase catalytic subunit alpha (Homo sapiens, UniProt P17612). Type of experiment: functional.
Experiment [24] deals with Dual specificity protein kinase CLK4 (Homo sapiens, UniProt Q9HAZ1). The format is functional.
In experiment [25] the target is Mitogen-activated protein kinase kinase kinase kinase 4 (Homo sapiens, UniProt O95819). Type of experiment: functional.
Experiment [26] has as its target Macrophage colony-stimulating factor 1 receptor (Homo sapiens, UniProt P07333). The format is functional.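 Further: value comes from the Navigating the Kinome screening panel, CSF1R member.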
The target of experiment [27] is Dual specificity tyrosine-phosphorylation-regulated kinase 1A (Homo sapiens, UniProt Q13627). Type of experiment: functional.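 Further: measured against DYRK1A as one member of a broad kinome profiling panel.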
In experiment [28] the target is Mitogen-activated protein kinase 14 (Homo sapiens, UniProt Q16539). Type of experiment: functional.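 Further: part of a kinome-wide panel, MAPK14 entry.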
Sequence of Mitogen-activated protein kinase 14 (Q16539 whole entry): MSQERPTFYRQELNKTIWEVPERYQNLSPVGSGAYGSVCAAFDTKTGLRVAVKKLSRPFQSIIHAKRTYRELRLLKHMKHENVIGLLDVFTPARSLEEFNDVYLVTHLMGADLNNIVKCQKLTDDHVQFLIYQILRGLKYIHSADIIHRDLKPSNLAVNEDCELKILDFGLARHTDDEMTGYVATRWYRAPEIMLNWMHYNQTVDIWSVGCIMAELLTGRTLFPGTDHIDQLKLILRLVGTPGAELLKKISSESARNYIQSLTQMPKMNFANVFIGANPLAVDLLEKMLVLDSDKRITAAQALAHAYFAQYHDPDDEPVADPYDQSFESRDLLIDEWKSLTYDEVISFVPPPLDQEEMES

T4 sequence (P14735 whole entry): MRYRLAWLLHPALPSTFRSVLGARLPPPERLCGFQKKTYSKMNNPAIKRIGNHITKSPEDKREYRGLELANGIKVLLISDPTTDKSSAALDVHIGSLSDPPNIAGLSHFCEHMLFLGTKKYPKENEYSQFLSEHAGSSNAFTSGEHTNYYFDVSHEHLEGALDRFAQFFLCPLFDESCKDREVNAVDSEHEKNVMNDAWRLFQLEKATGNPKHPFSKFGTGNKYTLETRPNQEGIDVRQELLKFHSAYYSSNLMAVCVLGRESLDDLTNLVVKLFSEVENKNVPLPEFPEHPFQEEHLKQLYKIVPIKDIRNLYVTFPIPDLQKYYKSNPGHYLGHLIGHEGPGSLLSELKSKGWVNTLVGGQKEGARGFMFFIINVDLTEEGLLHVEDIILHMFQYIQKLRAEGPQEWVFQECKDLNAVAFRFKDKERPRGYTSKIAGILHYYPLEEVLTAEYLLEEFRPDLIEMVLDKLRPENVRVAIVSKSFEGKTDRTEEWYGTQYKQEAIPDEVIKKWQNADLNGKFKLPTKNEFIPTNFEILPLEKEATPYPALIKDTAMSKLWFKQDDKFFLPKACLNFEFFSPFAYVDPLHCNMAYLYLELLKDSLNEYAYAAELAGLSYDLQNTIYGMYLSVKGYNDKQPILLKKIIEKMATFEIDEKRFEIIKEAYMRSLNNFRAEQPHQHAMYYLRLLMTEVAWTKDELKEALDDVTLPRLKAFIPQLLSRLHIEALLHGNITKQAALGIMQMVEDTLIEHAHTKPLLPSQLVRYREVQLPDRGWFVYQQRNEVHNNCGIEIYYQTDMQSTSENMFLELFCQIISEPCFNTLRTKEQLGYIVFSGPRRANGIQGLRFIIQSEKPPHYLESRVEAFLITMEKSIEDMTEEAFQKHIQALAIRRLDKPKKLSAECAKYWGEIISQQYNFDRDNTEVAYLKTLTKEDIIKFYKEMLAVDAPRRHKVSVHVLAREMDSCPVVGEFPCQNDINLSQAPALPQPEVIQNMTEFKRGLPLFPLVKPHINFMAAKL
Sequence of Vascular endothelial growth factor receptor 2 (P35968 whole entry): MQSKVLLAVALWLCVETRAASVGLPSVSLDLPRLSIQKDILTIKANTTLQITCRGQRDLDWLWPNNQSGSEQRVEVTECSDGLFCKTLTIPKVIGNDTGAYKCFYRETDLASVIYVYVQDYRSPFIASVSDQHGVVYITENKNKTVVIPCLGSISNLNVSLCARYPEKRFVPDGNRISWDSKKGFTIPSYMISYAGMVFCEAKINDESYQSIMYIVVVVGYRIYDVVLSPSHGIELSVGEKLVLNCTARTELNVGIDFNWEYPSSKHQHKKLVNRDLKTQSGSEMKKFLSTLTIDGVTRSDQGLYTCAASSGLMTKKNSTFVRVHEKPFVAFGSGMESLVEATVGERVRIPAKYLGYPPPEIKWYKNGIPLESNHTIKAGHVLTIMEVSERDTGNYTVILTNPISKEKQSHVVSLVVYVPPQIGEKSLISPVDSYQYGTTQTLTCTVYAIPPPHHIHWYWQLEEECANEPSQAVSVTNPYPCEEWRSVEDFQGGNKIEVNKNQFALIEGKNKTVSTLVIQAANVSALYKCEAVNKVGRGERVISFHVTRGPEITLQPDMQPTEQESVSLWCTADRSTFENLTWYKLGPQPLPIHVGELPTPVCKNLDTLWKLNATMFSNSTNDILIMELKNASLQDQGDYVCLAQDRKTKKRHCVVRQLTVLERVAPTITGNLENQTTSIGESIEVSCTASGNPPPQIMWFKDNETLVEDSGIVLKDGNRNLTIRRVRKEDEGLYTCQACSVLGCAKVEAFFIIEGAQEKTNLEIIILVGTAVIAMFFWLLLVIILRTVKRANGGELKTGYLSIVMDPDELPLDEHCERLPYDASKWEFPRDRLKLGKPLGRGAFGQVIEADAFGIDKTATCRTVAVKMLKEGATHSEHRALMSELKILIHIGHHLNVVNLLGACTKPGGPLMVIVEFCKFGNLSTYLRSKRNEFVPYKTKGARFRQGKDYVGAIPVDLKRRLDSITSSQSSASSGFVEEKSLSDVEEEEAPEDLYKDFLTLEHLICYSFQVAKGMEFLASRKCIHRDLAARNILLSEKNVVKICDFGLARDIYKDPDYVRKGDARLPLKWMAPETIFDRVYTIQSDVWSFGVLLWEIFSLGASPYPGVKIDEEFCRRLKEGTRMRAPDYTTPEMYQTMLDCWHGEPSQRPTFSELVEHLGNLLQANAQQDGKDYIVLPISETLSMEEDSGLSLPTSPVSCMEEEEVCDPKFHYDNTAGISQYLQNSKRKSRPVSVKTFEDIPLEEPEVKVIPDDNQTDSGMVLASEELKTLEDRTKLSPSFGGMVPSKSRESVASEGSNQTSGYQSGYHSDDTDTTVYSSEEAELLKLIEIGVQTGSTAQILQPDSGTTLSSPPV
Sequence of Protein disulfide-isomerase (P07237 whole entry): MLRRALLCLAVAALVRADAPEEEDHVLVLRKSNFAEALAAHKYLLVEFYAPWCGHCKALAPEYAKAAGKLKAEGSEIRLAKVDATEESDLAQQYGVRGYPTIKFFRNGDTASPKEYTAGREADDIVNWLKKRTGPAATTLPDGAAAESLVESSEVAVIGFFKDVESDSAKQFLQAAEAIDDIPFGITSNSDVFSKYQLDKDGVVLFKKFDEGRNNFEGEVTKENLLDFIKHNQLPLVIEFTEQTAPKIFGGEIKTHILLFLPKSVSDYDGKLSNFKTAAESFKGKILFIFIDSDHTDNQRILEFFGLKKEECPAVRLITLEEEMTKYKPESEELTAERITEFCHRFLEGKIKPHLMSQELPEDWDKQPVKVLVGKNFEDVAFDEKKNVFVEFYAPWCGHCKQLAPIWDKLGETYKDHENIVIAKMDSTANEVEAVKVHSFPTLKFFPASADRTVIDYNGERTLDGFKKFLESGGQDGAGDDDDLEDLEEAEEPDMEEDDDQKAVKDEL
Sequence of Paired box protein Pax-8 (Q06710 whole entry): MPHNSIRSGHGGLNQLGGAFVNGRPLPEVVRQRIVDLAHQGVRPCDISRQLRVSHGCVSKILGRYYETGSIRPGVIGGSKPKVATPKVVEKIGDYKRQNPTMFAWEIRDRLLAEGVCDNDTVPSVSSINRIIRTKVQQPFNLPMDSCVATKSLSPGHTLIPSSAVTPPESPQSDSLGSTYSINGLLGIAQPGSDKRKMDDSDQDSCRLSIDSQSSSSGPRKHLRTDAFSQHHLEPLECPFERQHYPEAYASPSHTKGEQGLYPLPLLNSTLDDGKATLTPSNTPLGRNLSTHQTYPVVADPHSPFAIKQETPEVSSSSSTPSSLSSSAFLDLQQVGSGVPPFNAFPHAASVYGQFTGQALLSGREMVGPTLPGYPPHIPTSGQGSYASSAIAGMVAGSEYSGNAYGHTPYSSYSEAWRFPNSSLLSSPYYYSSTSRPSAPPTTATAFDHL
Sequence of DNA dC->dU-editing enzyme APOBEC-3A (P31941 whole entry): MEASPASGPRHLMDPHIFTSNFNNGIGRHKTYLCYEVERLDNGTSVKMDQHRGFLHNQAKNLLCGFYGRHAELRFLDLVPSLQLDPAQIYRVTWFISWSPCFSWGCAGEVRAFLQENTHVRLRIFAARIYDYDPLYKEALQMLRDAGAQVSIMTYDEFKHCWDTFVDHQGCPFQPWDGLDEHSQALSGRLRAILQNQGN
Sequence of Cyclin-dependent kinase 19 (Q9BWU1 whole entry): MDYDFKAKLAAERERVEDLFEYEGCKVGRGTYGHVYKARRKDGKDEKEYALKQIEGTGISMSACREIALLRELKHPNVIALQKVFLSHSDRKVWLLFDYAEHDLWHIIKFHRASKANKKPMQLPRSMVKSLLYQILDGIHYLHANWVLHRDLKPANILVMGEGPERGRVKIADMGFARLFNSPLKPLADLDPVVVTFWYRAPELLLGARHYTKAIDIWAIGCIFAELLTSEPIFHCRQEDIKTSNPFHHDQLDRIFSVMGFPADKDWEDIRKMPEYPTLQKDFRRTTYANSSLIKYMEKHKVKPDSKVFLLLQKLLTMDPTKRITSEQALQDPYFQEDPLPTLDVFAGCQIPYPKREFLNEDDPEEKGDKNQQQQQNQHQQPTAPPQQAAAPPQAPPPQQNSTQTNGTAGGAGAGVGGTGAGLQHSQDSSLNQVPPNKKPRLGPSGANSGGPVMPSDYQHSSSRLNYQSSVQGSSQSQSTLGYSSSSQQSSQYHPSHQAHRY
Sequence of Dual specificity protein kinase CLK4 (Q9HAZ1 whole entry): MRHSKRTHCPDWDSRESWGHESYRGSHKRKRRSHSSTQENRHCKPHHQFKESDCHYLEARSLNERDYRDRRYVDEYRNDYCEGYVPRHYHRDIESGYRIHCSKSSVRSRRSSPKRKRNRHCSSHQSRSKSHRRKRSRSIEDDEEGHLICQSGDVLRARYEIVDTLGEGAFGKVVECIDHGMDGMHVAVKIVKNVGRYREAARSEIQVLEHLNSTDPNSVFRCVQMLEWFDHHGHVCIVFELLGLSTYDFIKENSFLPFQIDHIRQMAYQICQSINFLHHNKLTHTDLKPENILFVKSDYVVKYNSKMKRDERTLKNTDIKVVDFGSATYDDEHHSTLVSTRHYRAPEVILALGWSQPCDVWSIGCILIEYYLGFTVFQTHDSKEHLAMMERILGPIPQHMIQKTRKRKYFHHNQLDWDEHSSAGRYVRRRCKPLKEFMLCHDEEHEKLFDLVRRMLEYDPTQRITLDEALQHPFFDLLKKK

The term EC50 denotes the concentration needed to bring the measured effect to its halfway point. In general, AC50 refers to the concentration at which the activity in the assay is half-maximal. For `Cn1c(=O)c([N+](=O)[O-])c(Cl)c2ccccc21`, the EC50 was 4.3 µM (active) in [1], 1.87 µM (active) in experiment [2], 3.97 µM (active) in experiment [3] and 4.25 µM (active) at Protein RecA. The IC50 in the experiment on CHO is 1.18 µM (active); on Beta Lactamase, 17.8 µM (inactive). For the same compound, the values for the AC50 (in experiment [4]; on Paired box protein Pax-8) were 5.18 µM (active) and 6.65 µM (active), respectively.
In general, CC50 refers to the concentration at which the toxic effect on the cells reaches its halfway point. Take `COC1/C=C/C=C(\C)Cc2cc(O)c(Cl)c(c2)N(C)C(=O)CC(OC(=O)C(C)C)C2(C)OC2C(C)C2CC1(O)NC(=O)O2` (centres undefined): the cytotoxic concentration (CC50) with Vero was < 50 nM (active). The AC50 in experiment [5] was 9.59 µM (active). Also, the EC50 in the experiment on HEK293 [6] and in the experiment with HEK293 [7] was > 59.7 µM (inactive) in each case.
In the case of `COc1ccc2c(Cl)c(-c3nnc(SCC(=O)c4ccc(F)cc4)n3C)sc2c1`, the IC50 in experiment [8] and in [9] was > 99 µM (inactive) in each case.
For the compound `CCCCCc1nnc(NC(=O)C2CCCO2)s1` (centres undefined), the EC50 on Insulin-degrading enzyme [10], on Insulin-degrading enzyme [11] and with HEK293 [13] was > 54.7 µM (inactive) in each case. Also, the IC50 with HEK293 [12] is > 89.1 µM (inactive).
What is called Ki is the equilibrium dissociation constant of an inhibitor or competing ligand from its target. Take `CN1CCN(Cc2ccc3c(c2)-c2n[nH]c(=O)c4cccc(c24)O3)CC1`: the Ki in experiment [14] was 5.01 µM (active); in experiment [15] it was 3.16 µM (active).
For `C(=Cc1ccc2nccn2n1)c1ccccc1`, the Ki in [16] was > 100 µM (inactive); at Aurora kinase A, > 63.1 µM (inactive); in experiment [17] it was > 79.4 µM (inactive); in experiment [18] it was > 100 µM (inactive); in experiment [19], 3.98 µM (active); in [20], > 100 µM (inactive). In addition, the Ki in [21] is 12.6 µM (active); in experiment [22], > 63.1 µM (inactive); in [23], 5.01 µM (active); in experiment [24], 3.98 µM (active); in experiment [25], 7.94 µM (active); in experiment [26], > 100 µM (inactive). In addition, the Ki in [27] was > 79.4 µM (inactive); in experiment [28] it was 100 µM (active).
